Measurements: ChEMBL document CHEMBL1201862, “PubChem BioAssay data set” (2004)
The source made the active and inactive calls.

Tests used:
[1] = biological target: T1, Corticotropin-releasing factor receptor 2/Corticotropin-releasing factor-binding protein (Homo sapiens, UniProt P24387+Q13324); experiment: activators of CRF receptor 2 with binding protein – uHTS hits, confirmation (AID 602473); format: functional; settings: read-out: EC50_Mean
T1 sequence (Q13324 whole entry): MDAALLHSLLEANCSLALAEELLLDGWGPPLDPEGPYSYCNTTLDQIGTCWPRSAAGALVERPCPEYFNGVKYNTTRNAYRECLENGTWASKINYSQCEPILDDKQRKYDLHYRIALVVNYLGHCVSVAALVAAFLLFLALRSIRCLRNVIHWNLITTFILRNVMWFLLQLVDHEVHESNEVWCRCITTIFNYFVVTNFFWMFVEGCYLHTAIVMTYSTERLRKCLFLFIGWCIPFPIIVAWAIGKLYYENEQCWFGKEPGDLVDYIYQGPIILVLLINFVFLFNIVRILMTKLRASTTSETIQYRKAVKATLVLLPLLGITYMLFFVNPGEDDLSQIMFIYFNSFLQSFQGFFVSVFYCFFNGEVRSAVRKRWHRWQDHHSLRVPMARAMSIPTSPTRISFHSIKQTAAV
T1 sequence (P24387 whole entry): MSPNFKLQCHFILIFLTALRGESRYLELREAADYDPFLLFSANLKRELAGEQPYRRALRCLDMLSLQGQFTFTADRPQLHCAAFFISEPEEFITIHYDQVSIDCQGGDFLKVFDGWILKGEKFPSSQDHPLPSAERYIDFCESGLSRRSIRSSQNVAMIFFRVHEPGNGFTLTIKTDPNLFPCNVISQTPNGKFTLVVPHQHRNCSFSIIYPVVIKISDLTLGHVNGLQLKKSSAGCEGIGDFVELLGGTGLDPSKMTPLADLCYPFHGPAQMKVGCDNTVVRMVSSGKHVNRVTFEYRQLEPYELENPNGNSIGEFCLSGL

[2] = biological target: T2, Heat shock factor protein 1 (Mus musculus, UniProt P38532); experiment: inhibition of MG132-induced HSE-luciferase signal, confirmation, cell-based, NIH3T3, luminescence, dose retest (AID 2382); format: functional;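 note: NIH3T3 fibroblasts with HSF1-driven luciferase reporter stressed by proteasome inhibitor MG132; luminescence from HSF1-driven luciferase expression after 8 hours of MG132 stress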
T2 sequence (P38532 whole entry): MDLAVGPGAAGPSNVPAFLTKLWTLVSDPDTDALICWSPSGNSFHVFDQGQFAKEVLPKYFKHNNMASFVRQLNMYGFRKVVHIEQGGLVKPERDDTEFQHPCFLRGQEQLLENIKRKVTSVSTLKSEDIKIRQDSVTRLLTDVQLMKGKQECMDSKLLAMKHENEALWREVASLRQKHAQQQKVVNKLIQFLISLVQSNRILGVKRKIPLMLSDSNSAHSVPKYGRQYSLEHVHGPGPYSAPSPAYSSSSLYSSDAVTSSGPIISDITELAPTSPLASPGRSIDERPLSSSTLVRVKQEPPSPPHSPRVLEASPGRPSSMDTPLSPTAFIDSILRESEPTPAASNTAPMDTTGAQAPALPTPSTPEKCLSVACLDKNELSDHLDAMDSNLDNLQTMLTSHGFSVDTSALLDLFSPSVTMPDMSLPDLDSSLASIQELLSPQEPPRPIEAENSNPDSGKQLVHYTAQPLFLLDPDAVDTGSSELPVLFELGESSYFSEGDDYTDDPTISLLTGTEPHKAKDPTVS

Cytochrome P450 2C19 = Cytochrome P450 2C19 (Homo sapiens, UniProt P33261); experiment: Cytochrome panel assay with activity outcomes. Panel member name: p450-cyp2c19 Compounds with AC50 equal or less than 10 uM are considered active; format: functional; settings: read-out: AC50
Chain of Cytochrome P450 2C19 (P33261 whole entry): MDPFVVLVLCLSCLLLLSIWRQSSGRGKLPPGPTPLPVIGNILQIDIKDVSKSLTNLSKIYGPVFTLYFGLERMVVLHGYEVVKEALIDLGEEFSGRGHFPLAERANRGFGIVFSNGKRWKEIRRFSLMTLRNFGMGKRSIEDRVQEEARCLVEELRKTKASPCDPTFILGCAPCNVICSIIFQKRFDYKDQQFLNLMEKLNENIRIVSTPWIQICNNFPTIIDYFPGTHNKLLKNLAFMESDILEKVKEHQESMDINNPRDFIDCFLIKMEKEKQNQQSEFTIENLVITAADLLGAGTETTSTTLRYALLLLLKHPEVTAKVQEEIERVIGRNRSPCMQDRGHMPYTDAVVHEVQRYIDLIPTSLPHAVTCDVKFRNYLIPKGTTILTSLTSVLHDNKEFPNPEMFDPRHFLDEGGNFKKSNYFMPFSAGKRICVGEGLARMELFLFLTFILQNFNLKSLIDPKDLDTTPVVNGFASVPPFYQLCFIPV

Cytochrome P450 2C9 = Cytochrome P450 2C9 (Homo sapiens, UniProt P11712)
Chain of Cytochrome P450 2C9 (P11712 whole entry): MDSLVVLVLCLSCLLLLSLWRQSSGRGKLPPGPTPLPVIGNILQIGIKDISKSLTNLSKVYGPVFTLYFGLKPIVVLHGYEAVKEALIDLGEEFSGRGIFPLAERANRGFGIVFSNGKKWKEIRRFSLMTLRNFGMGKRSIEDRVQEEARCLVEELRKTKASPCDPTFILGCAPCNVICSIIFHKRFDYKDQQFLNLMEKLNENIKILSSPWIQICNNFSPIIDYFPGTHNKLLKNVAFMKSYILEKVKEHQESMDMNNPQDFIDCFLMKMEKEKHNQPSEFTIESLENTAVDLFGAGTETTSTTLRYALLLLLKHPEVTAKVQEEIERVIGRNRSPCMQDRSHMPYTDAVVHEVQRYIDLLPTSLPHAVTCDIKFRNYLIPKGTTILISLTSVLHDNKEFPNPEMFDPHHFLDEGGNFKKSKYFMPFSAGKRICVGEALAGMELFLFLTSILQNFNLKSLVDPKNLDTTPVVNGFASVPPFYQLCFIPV

Cytochrome P450 3A4 = Cytochrome P450 3A4 (Homo sapiens, UniProt P08684);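 note: CYP3A4 tested as one member of a cytochrome P450 panel screen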
Chain of Cytochrome P450 3A4 (P08684 whole entry): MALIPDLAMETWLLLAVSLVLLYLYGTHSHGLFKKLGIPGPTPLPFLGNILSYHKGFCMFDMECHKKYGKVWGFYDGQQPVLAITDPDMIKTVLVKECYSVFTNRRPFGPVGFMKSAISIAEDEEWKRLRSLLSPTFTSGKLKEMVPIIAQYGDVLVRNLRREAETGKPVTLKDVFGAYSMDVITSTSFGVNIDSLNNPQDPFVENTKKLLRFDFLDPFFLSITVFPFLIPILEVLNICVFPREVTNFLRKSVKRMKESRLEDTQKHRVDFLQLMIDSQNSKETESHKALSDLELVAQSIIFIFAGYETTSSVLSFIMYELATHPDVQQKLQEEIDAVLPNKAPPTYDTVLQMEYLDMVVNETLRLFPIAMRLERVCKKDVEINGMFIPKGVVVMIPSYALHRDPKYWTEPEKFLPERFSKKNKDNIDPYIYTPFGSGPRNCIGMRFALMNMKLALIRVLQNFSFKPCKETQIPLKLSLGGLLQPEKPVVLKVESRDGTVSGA

H4 = experiment: Luminescence Cell-Based Dose Response HTS to Identify Activators of 5'UTR Stem-Loop Driven Prion Protein mRNA Translation in H4 Neuroglioblastoma Cells. [Related pubchem assays: 1829 (Project Summary), 1814 (Primary HTS)]; format: functional; settings: Homo sapiens
[3] = Luminescence Cell-Based Dose Response HTS to Identify Activators of Luciferase Translation or Activity in H4 […] Cells. [Related pubchem assays: 1829 (Project Summary), 1814 (Primary HTS)]; format: functional
[4] = biological target: T3, Rac GTPase-activating protein 1 (Homo sapiens, UniProt Q9H0H5); experiment: MgcRacGAP GTPase-activating activity inhibitors, confirmation, biochemical, ADP Hunter fluorescence, primary and confirmatory (AID 624330); format: functional
T3 sequence (Q9H0H5 whole entry): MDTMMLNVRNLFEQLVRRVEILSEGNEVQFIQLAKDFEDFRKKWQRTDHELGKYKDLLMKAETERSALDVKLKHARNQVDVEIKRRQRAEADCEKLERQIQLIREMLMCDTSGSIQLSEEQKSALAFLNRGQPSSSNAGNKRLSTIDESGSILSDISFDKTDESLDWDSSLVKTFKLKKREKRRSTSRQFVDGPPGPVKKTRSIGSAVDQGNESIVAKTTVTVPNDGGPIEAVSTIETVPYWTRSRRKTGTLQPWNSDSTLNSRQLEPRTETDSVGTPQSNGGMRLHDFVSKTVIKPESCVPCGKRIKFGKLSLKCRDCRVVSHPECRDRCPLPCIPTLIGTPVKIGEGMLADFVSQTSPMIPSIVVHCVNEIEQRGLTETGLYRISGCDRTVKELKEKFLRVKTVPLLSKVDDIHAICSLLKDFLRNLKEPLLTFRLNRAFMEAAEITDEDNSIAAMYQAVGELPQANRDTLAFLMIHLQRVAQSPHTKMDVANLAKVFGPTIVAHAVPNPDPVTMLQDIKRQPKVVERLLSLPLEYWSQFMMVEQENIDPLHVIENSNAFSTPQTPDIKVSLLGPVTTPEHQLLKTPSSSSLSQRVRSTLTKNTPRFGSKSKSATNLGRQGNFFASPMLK

**Q.** For `Cn1c(N)c(-c2ccccc2)c2ccc([N+](=O)[O-])cc2c1=O`, which EC50 [1] is on record?
**A.** 4.5 µM (active)

**Q.** For `O=C(O)c1ccn(Cn2cnc3ccccc32)n1`, which EC50 [2] is on record?
**A.** > 195 µM (not active)

**Q.** With `Nc1ccc(C(=O)N/N=C/c2ccccc2)cc1` as the molecule, how does the AC50 (Cytochrome P450 2C19) read?
**A.** 15.8 µM (inconclusive)

**Q.** And the AC50 (Cytochrome P450 2C9)?
**A.** 0.282 µM (inconclusive)

**Q.** What about the AC50 (Cytochrome P450 3A4) of the same molecule?
**A.** 15.8 µM (inconclusive)

**Q.** For `CCN(C(=O)c1ccc2c(SCC(=O)O)c3c(nc2c1)CCC3)c1cc(Cl)ccc1OC`, which EC50 [2] is on record?
**A.** > 195 µM (not active)

**Q.** Which AC50 (Cytochrome P450 3A4) does the source give for `OCCN=c1cc(-c2ccccc2)oc2ccc(Cl)cc12` here?
**A.** 10 µM (inconclusive)

**Q.** Which results are given for `Cc1cc(/C=C(\C#N)C(=O)NC2CC2)c(C)[nH]1`?
**A.** EC50 (H4): > 120 µM (not active); EC50 [3]: 0.857 µM (active)

**Q.** With `Cc1nc2ccc(C(=O)Nc3ccc(N(C)C)cc3)cc2s1` as the molecule, how does the IC50 [4] read?
**A.** 39.3 µM (active)

**Q.** For `CC(C)N1CCC(N2CCN(C3CCCC3)CC2CCO)CC1` (centres undefined), which EC50 [2] is on record?
**A.** > 195 µM (not active)

**Q.** For `O=S(=O)(c1ccccc1)N1CN2CN(C1)CN(S(=O)(=O)c1ccccc1)C2`, which AC50 (Cytochrome P450 2C9) is on record?
**A.** 0.631 µM (inconclusive)

**Q.** Which AC50 (Cytochrome P450 3A4) does the source give for `CC(=O)NCCNc1ncnc2ccc(-c3cccc(NS(C)(=O)=O)c3)cc12` here?
**A.** 7.94 µM (inconclusive)

**Q.** With `COc1ccc(N2CCN(C(CNS(=O)(=O)c3cccs3)c3cccnc3)CC2)cc1` (centres undefined) as the molecule, how does the IC50 [4] read?
**A.** 120 µM (active)

**Q.** Which AC50 (Cytochrome P450 2C9) does the source give for `Cc1cccc(CNc2ncncc2-c2ccccc2C)c1` here?
**A.** 1.26 µM (inconclusive)

**Q.** For `CCN(CC)CCCNCC(=O)Nc1cc(C)on1`, which IC50 [4] is on record?
**A.** 99.4 µM (active)

**Q.** Which IC50 [4] does the source give for `NC(S)=NNc1ccnc2cc(Cl)ccc12` here?
**A.** 110 µM (active)

**Q.** With `Cc1cccc(C(=O)c2ccccc2C(=O)O)c1O` as the molecule, how does the AC50 (Cytochrome P450 2C9) read?
**A.** 0.1 µM (inconclusive)

**Q.** And the AC50 (Cytochrome P450 3A4)?
**A.** 25.1 µM (inconclusive)

**Q.** For `COc1ccc(S(=O)(=O)N2CCCN(CC(=O)Nc3ccc(OC)c(Cl)c3)CC2)cc1`, which AC50 (Cytochrome P450 2C9) is on record?
**A.** 39.8 µM (inconclusive)

**Q.** What does the source list for `COC(=O)Cn1cc(/C=N/NC(=O)c2ccc(C#N)cc2F)c2ccccc21`?
**A.** AC50 (Cytochrome P450 2C19): 22.4 µM (inconclusive); AC50 (Cytochrome P450 2C9): 8.91 µM (inconclusive)

**Q.** Which results are given for `CCOc1ccc(N2C(=O)/C(=C/c3cc(OC)c(OC)c(OC)c3)N(CC(=O)OC)C2=S)cc1`?
**A.** AC50 (Cytochrome P450 2C9): 1.41 µM (inconclusive); AC50 (Cytochrome P450 3A4): 15.8 µM (inconclusive)

**Q.** Which IC50 [4] does the source give for `CCOc1cc(C=NNC(=O)CCCC(=O)NN=Cc2ccc(O)c(OCC)c2)ccc1O` here?
**A.** 50.4 µM (active)

**Q.** With `Brc1ccccc1OCCCCCN1CCOCC1` as the molecule, how does the IC50 [4] read?
**A.** 146 µM (active)

**Q.** For `COCCNc1nc(-c2ccccc2C)nc2ccccc12`, which AC50 (Cytochrome P450 3A4) is on record?
**A.** 12.6 µM (inconclusive)

**Q.** Which EC50 [2] does the source give for `Cc1ccccc1NC(=O)COC(=O)c1ccc(S(C)(=O)=O)c([N+](=O)[O-])c1` here?
**A.** 6.14 µM (active)

**Q.** Which EC50 [2] does the source give for `CC(=O)c1cnn(-c2c(Cl)cc(Cl)cc2Cl)c1C` here?
**A.** > 195 µM (not active)

**Q.** Which EC50 [2] does the source give for `CCN(CC)S(=O)(=O)c1cccc(-c2nnc(SCC(N)=O)n2CCc2ccccc2)c1` here?
**A.** > 195 µM (not active)

**Q.** Which AC50 (Cytochrome P450 2C9) does the source give for `COc1cc(C(=O)NC(=S)Nc2ccc(Cl)c(C(=O)O)c2)cc(OC)c1OC` here?
**A.** 28.2 µM (inconclusive)

**Q.** With `Cc1ccc(NC(=O)CN2C(=O)S/C(=C\c3cccn3C)C2=O)cc1` as the molecule, how does the AC50 (Cytochrome P450 3A4) read?
**A.** 7.08 µM (inconclusive)

**Q.** For `Cc1ccc(N=Nc2c(=O)[nH]n3c(C)cc(C)nc23)cc1`, which AC50 (Cytochrome P450 2C19) is on record?
**A.** 39.8 µM (inconclusive)

**Q.** And the AC50 (Cytochrome P450 3A4)?
**A.** 25.1 µM (inconclusive)
